Tests used:
Assay type in all cases: biochemical
[1] = biological target: T1, μ-opioid receptor (Homo sapiens, UniProt P35372); test: μ-opioid receptor [35S]GTPγS functional assay, HEK-293 or CHO cells; details: for Emax: HEK-293 or CHO cells, relative to DAMGO
Experimental: (§1) [^35S]GTPγS functional assays were conducted using freshly thawed μ-receptor membranes prepared in-house from a cell line expressing recombinant opioid receptor in a HEK-293, CHO or U-2 OS cell background, or purchased from a commercial source (Perkin Elmer, Shelton, Conn.; or DiscovRx, Fremont, Calif.). Assay reactions were prepared by sequentially adding the following reagents to binding buffer (100 mM NaCl, 10 mM MgCl2, 20 mM HEPES, pH 7.4) on ice (final concentrations indicated): membrane protein (0.026 mg/mL), saponin ([…]), GDP ([…]) and [^35S]GTPγS (0.20 nM; Perkin Elmer, Shelton, Conn.). The prepared membrane solution (190 l/well) was transferred to 96-shallow well polypropylene plates containing 10 μl of 20× concentrated stock solutions of the agonist [D-Ala^2, N-methyl-Phe^4 Gly-ol^5]-enkephalin (DAMGO) prepared in dimethyl sulfoxide (DMSO). Plates were incubated for 30 min at about 25° C. with shaking. Reactions were terminated by rapid filtration onto 96-well Unifilter GF/B filter plates (Perkin Elmer, Shelton, Conn.) using a 96-well tissue harvester (Perkin Elmer, Shelton, Conn.) followed by three filtration washes with 200 μl of ice-cold wash buffer (10 mM NaH2PO4, 10 mM Na2HPO4, pH 7.4). Filter plates were subsequently dried at 50° C. for 2-3 hr. BetaScint scintillation cocktail (Perkin Elmer, Shelton, Conn.) was added (50 μl/well) and plates were counted using a Packard Top-Count for 1 min/well. Data were analyzed using the sigmoidal dose-response curve fitting functions in GraphPad PRISM v. 3.0, or an in-house function for non-linear, sigmoidal dose-response curve-fitting.
(§2) μ GTP EC50 is the concentration of a compound providing 50% of the maximal response for the compound at a μ-opioid receptor.
(§3) μ GTP Emax (%) is the maximal effect elicited by a compound relative to the effect elicited by DAMGO, a standard agonist. Generally, the μ GTP Emax (%) value measures the efficacy of a compound to treat or prevent pain or other Conditions.
In TABLE 2, activity response of certain Compounds of the Invention at the μ- and κ-opioid receptors using HEK-293 or CHO cells was determined as described above for functional assays.

[2] = biological target: T1, μ-opioid receptor; test: μ-opioid receptor [35S]GTPγS functional assay, U-2 OS cells; design: host or cells: U-2 OS cells
Experimental: as §1, §2, §3
(§4) In TABLE 2A, activity response of certain Compounds of the Invention at the μ- and κ-opioid receptors using U-2 OS cells was determined as described above for functional assays.

[3] = biological target: human κ opioid receptor (Homo sapiens, UniProt P41145); test: κ-opioid receptor [35S]GTPγS functional assay, U-2 OS cells; design: expressed in transfected cells; host or cells: U-2 OS cells (in-house membranes)
Sequence of human κ opioid receptor (P41145 whole entry): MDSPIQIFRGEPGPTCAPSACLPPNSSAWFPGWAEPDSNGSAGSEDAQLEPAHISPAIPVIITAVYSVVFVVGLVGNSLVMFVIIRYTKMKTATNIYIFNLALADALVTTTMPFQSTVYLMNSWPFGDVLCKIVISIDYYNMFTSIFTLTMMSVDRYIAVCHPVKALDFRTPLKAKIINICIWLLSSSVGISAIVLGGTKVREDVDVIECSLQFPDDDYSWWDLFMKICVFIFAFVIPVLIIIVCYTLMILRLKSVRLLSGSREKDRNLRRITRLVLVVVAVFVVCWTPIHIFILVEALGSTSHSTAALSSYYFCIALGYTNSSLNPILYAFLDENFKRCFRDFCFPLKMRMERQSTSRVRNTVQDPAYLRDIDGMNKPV
Experimental: Membranes from recombinant HEK-293 cells, CHO or U-2 OS cells expressing the recombinant human K opioid receptor (K) were prepared by lysing cells in ice cold hypotonic buffer (2.5 mM MgCl2, 50 mM HEPES, pH 7.4) (10 mL/10 cm dish) followed by homogenization with a tissue grinder/Teflon pestle. Functional [^35S]GTPγS binding assays were conducted as follows. K opioid receptor membrane solution was prepared by sequentially adding final concentrations of 0.026 μg/μl κ membrane protein (in-house), 10 μg/mL saponin, 3 μM GDP and 0.20 nM [^35S]GTPγS to binding buffer (100 mM NaCl, 10 mM MgCl2, 20 mM HEPES, pH 7.4) on ice. The prepared membrane solution (190 μl/well) was transferred to 96-shallow well polypropylene plates containing 10 μl of 20× concentrated stock solutions of agonist prepared in DMSO. Plates were incubated for 30 min at a temperature of about 25° C. with shaking. Reactions were terminated by rapid filtration onto 96-well Unifilter GF/B filter plates (Perkin Elmer, Shelton, Conn.) using a 96-well tissue harvester (Packard) and followed by three filtration washes with 200 μl ice-cold binding buffer (10 mM NaH2PO4, 10 mM Na2HPO4, pH 7.4). Filter plates were subsequently dried at 50° C. for 2-3 hours. Fifty μl/well scintillation cocktail (Perkin Elmer, Shelton, Conn.) was added and plates were counted in a Packard Top-Count for 1 min/well.
κ GTP EC50 is the concentration of a compound providing 50% of the maximal response for the compound at a κ receptor.
κ GTP Emax (%) is the maximal effect elicited by a compound relative to the effect elicited by U69,593.
as §4

T1 sequence (P35372 whole entry, species assumed): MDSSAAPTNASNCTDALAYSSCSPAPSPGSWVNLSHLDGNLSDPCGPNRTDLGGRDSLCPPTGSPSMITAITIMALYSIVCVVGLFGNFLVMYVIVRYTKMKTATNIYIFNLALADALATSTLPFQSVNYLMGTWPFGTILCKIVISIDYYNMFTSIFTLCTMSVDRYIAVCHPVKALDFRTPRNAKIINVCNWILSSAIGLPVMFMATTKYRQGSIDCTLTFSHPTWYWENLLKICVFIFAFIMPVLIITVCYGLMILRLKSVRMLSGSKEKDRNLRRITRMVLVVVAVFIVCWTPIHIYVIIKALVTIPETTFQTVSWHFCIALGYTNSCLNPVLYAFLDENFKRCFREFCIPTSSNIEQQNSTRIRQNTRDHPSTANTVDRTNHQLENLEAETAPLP

Structure (SMILES) | EC50 [1] | Emax [1] | EC50 [2] | Emax ([2]; U2-OS cells, relative to DAMGO) | EC50 [3] | Emax ([3]; U2-OS cells, relative to U69,593)
CC(C)CN[C@H]1CC[C@]23CCN(CC4CC4)[C@H](Cc4ccc(O)cc42)[C@]3(O)C1 [Compound 42, (4bS,7S,8aS,9R)-11-(cyclopropylmethyl)-7-(isobutylamino)-5,6,7,8,9,10-hexahydro-8aH-9,4b-(epiminoethano)phenanthrene-3,8a-diol] | 20.2 ± 7.83 nM | 16.6 ± 1.63% | 2.81 ± 0.16 nM | 67.3 ± 2.85% | 0.25 ± 0.029 nM | 110%
CC(C)CCC(=O)N[C@H]1C[C@@]2(O)[C@H]3Cc4ccc(O)cc4[C@@]2(CCN3C)CC1O (stereo partly drawn) [Compound 105, 4-methyl-N-((4bR,7S,8aS,9R)-3,6,8a-trihydroxy-11-methyl-6,7,8,8a,9,10-hexahydro-5H-9,4b-(epiminoethano)phenanthren-7-yl)pentanamide] | 3650 ± 294 nM | 77 ± 2.65% |  |  |  | 
CC(C)CCCC(=O)N[C@H]1C[C@@]2(O)[C@H]3Cc4ccc(O)cc4[C@@]2(CCN3C)CC1O (stereo partly drawn) [Compound 106, 5-methyl-N-((4bR,7S,8aS,9R)-3,6,8a-trihydroxy-11-methyl-6,7,8,8a,9,10-hexahydro-5H-9,4b-(epiminoethano)phenanthren-7-yl)hexanamide] | 635 ± 43.7 nM | 82.3 ± 1.86% |  |  |  | 
CN(C)[C@@H]1CC[C@@]2(O)[C@H]3Cc4ccc(O)cc4[C@@]2(CCN3C)C1 [Compound 107, (4bR,6R,8aS,9R)-6-(dimethylamino)-11-methyl-5,6,7,8,9,10-hexahydro-8aH-9,4b-(epiminoethano)phenanthrene-3,8a-diol] | 1290 ± 20.3 nM | 36.3 ± 1.2% |  |  |  | 
CN1CC[C@]23C[C@@H](O)[C@@H](NC(=O)c4ccccc4)C[C@@]2(O)[C@H]1Cc1ccc(O)cc13 [Compound 108, N-((4bR,6R,7S,8aS,9R)-3,6,8a-trihydroxy-11-methyl-6,7,8,8a,9,10-hexahydro-5H-9,4b-(epiminoethano)phenanthren-7-yl)benzamide] | 2190 ± 211 nM | 48.4 ± 0.66% |  |  |  | 
CC(C)CC[C@H]1C[C@@]2(O)[C@H]3Cc4ccc(O)cc4[C@@]2(CCN3C)C[C@H]1O [Compound 109, (4bR,6R,7S,8aS,9R)-7-isopentyl-11-methyl-5,6,7,8,9,10-hexahydro-8aH-9,4b-(epiminoethano)phenanthrene-3,6,8a-triol] | 1870 ± 203 nM | 41.1 ± 3.25% |  |  |  | 
CN1CC[C@]23CC(O)[C@@H](CC4CCCC4)C[C@@]2(O)[C@H]1Cc1ccc(O)cc13 (stereo partly drawn) [Compound 110, (4bR,7S,8aS,9R)-7-(cyclopentylmethyl)-11-methyl-5,6,7,8,9,10-hexahydro-8aH-9,4b-(epiminoethano)phenanthrene-3,6,8a-triol] | > 20000 nM | 42.7 ± 32.7% |  |  |  | 
CN(C)CC(=O)N[C@H]1C[C@@]2(O)[C@H]3Cc4ccc(O)cc4[C@@]2(CCN3CC2CC2)C[C@@H]1O [Compound 111, N-((4bR,6S,7S,8aS,9R)-11-(cyclopropylmethyl)-3,6,8a-trihydroxy-6,7,8,8a,9,10-hexahydro-5H-9,4b-(epiminoethano)phenanthren-7-yl)-2-(dimethylamino)acetamide] | > 20000 nM | 1.67 ± 0.67% |  |  |  | 
CC(C)C(=O)N[C@H]1C[C@H]2[C@H]3Cc4ccc(O)cc4[C@@]2(CCN3CC2CC2)C[C@H]1O [Compound 112, N-((4bS,6R,7S,8aR,9R)-11-(cyclopropylmethyl)-3,6-dihydroxy-6,7,8,8a,9,10-hexahydro-5H-9,4b-(epiminoethano)phenanthren-7-yl)isobutyramide] | 66.7 ± 27.5 nM | 8.61 ± 0.31% |  |  |  | 
CCN[C@H]1C[C@@]2(O)[C@H]3Cc4ccc(O)cc4[C@@]2(CCN3C)C[C@H]1O [Compound 113, (4bR,6R,7S,8aS,9R)-7-(ethylamino)-11-methyl-5,6,7,8,9,10-hexahydro-8aH-9,4b-(epiminoethano)phenanthrene-3,6,8a-triol] | > 20000 nM | 3.62 ± 3.99% |  |  |  | 
CCN[C@H]1C[C@@]2(O)[C@H]3Cc4ccc(O)cc4[C@@]2(CCN3C)C[C@@H]1O [Compound 114, (4bR,6S,7S,8aS,9R)-7-(ethylamino)-11-methyl-5,6,7,8,9,10-hexahydro-8aH-9,4b-(epiminoethano)phenanthrene-3,6,8a-triol] | > 20000 nM | 9.47 ± 0.74% |  |  |  | 
CC(C)CCCC(=O)N[C@H]1C[C@@]2(O)[C@H]3Cc4ccc(O)cc4[C@@]2(CCN3CC2CC2)C[C@@H]1O [Compound 115, N-((4bR,6S,7S,8aS,9R)-11-(cyclopropylmethyl)-3,6,8a-trihydroxy-6,7,8,8a,9,10-hexahydro-5H-9,4b-(epiminoethano)phenanthren-7-yl)-5-methylhexanamide] | > 20000 nM | -1.04% |  |  |  | 
CN[C@H]1C[C@@]2(O)[C@H]3Cc4ccc(O)cc4[C@@]2(CCN3C)C[C@H]1O [Compound 116, (4bR,6R,7S,8aS,9R)-11-methyl-7-(methylamino)-5,6,7,8,9,10-hexahydro-8aH-9,4b-(epiminoethano)phenanthrene-3,6,8a-triol] | 13800 ± 600 nM | 28.9 ± 1.26% |  |  |  | 
CC(C)CCCC(=O)O[C@@H]1C[C@]23CCN(CC4CC4)[C@H](Cc4ccc(O)cc42)[C@]3(O)C[C@@H]1N [Compound 117, (4bR,6R,7S,8aS,9R)-7-amino-11-(cyclopropylmethyl)-3,8a-dihydroxy-6,7,8,8a,9,10-hexahydro-5H-9,4b-(epiminoethano)phenanthren-6-yl 5-methylhexanoate] | 23 ± 3.59 nM | 14.1 ± 1.2% |  |  |  | 
COc1ccc2c(c1)[C@]13CCN(C)[C@H](C2)[C@H]1[C@H](O)C[C@H](OCCO)C3 [Compound 118, (4bS,6R,8R,8aS,9R)-6-(2-hydroxyethoxy)-3-methoxy-11-methyl-6,7,8,8a,9,10-hexahydro-5H-9,4b-(epiminoethano)phenanthren-8-ol] | > 20000 nM | 31.8 ± 5.76% |  |  |  | 
COc1ccc2c(c1)[C@]13CCN(C)[C@H](C2)[C@H]1[C@H](O)C[C@@H](OCCO)C3 [Compound 119, (4bS,6S,8R,8aS,9R)-6-(2-hydroxyethoxy)-3-methoxy-11-methyl-6,7,8,8a,9,10-hexahydro-5H-9,4b-(epiminoethano)phenanthren-8-ol] | > 20000 nM | 24.2 ± 3.04% |  |  |  | 
CN1CC[C@]23C[C@@H](OCCO)C[C@@H](O)[C@@H]2[C@H]1Cc1ccc(O)cc13 [Compound 120, (4bS,6R,8R,8aS,9R)-6-(2-hydroxyethoxy)-11-methyl-6,7,8,8a,9,10-hexahydro-5H-9,4b-(epiminoethano)phenanthrene-3,8-diol] | 436 ± 34.7 nM | 36.3 ± 1.43% |  |  |  | 
CN1CC[C@]23C[C@H](OCCO)C[C@@H](O)[C@@H]2[C@H]1Cc1ccc(O)cc13 [Compound 121, (4bS,6S,8R,8aS,9R)-6-(2-hydroxyethoxy)-11-methyl-6,7,8,8a,9,10-hexahydro-5H-9,4b-(epiminoethano)phenanthrene-3,8-diol] | 1960 ± 876 nM | 16.6 ± 1.97% |  |  |  | 

From US20200148646A1, “6-S[…] 7-S[…] ANALOGS AND THE USE THEREOF” (Purdue Pharma, L.P., priority 2013, published 2020)
